The values that follow come from patent US20240075160A1, “COMBINATION THERAPIES FOR TREATMENT OF CANCER” (MedImmune, LLC, priority 2022, published 2024).

For assay [1], the system named is PC9-MART1-GFP cells. Nature of the assay: T cell mediated cytolysis in co-culture of MART-1 reactive CD8+ T cells and tumor cells (Incucyte, loss of GFP). The following applies: single agent; bispecific 2 nM, ADC 0.05 μg/ml; E:T 4:1 or 5:1; five days after T cell addition. It is filed as cell-based. The method, then:
A co-culture assay system was developed which utilized melanoma antigen Melan A (MART-1) reactive T cells and PC9 lung adenocarcinoma cells engineered to express both the MART-1 antigen and Green Fluorescent Protein (GFP). Tumor cell lysis was evaluated utilizing the Sartorius Incucyte Live Cell Analysis System whereby loss of GFP signal intensity was used as a surrogate marker for cell death. Briefly, PC9-MART1-GFP cells were harvested from cell culture flasks using trypsin, washed once with complete RPMI media as defined in Example 1, resuspended and added to each well of 96 well clear bottom, opaque walled optical plates for 24 hours at 37° C. in 5% CO2 as per the manufacturer's instructions. The PD-1-TIGIT (AZD2936), PD-1-TIM3 (AZD7789) or PD-1-CTLA4 (MEDI5752) bispecific antibodies were used at 2 nM concentration. The hRS7(TROP2)-TOP1i ADC was used at 0.05 μg/ml. Treatments were added alone or in combination to wells immediately before rested, antigen-specific CD8+ T cells were added at effector to target (E:T) ratios of 4:1 or 5:1 effector T cells to target tumor cells depending on the donor. Tumor cell death and percent cytolysis were measured five days after T cell addition by image analysis of GFP intensity per well. Data are from experiments with 3 unique donors. Statistical significance for the indicated comparisons is denoted as * p<0.05, ** p<0.01, p<0.001.

In assay [2] the test system is human IFN-7. The assay is described as follows: IFN-γ release in supernatants of co-culture of tumor cells and tumor reactive CD8+ T cells (Mesoscale ELISA). It is filed as cell-based. The following applies: MART-1 reactive T cell-PC9 co-culture. As to the method: Antigen specific CD8+ T-cells secrete IFN-γ upon tumor antigen recognition. To evaluate the amount of IFN-7 detected within the supernatants of co-cultures containing PC9-MART1-GFP tumor cells and tumor reactive CD8+ T cells, separate parallel co-cultures were established in Nunc 96 well plates (Sigma Aldrich) alongside the Incucyte optical plates. For evaluation of IFN-7 release, supernatants were harvested from co-cultures in the Nunc 96 well plates 24, 72 and 144 hours later. IFN-7 was measured using Mesoscale Discovery multi-spot ELISA for human IFN-7 as per the manufacturer's instructions. […] For the MART-1 tumor antigen reactive T cell-PC9 lung adenocarcinoma co-culture, IFN-7 secretion by T cells was retained in the presence of the hRS7(TROP2)-TOP1i ADC alone, AZD2936 and MEDI5752 both alone and in combination with the ADC, FIG. 4C-4D. AZD7789 enhanced IFN-7, which was retained in combination with the hRS7(TROP2)-TOP1i ADC FIG. 4E.

Where [3] appears, read: agent alone, supernatants at 24, 72 and 144 hours.
Where [4] appears, read: in combination with the hRS7(TROP2)-TOP1i ADC.

With “AZD7789: anti-TIM-3/PD-1 bispecific binding protein comprising sequences of monoclonal antibody 013-1 (TIM-3) and LO115 (PD-1)”, the “T cell mediated cytolysis of PC9 tumor cells” value (“T cell mediated cytolysis” below) in assay [1] is “enhanced”. Also, the “IFN-7 secretion by T cells” value in assay [2] (setting [3]) is “enhanced”; in assay [2] (setting [4]) it was “retained”.

In the case of AZD2936: PD-1-TIGIT bispecific antibody, the “T cell mediated cytolysis” value in assay [1] was “enhanced”. Also, the “IFN-7 secretion by T cells” value in assay [2] (setting [3]) and in assay [2] (setting [4]) was “retained” each time.

For “MEDI5752: anti-PD-1/CTLA-4 bispecific antibody”, in assay [1], the “T cell mediated cytolysis” value is given as “enhanced”. Also, the “IFN-7 secretion by T cells” value in assay [2] (setting [3]) and in assay [2] (setting [4]) was “retained” throughout.
